Measured values from article PMC7649969, “Pyrazolyl-pyrimidones inhibit the function of human solute carrier protein SLC11A2 (hDMT1) by metal chelation” (RSC Medicinal Chemistry, 2020).

Target: T1, hDMT1 (SLC11A2) (Homo sapiens, UniProt P49281)
T1 construct: DsRED; expressed in transfected cells
T1 sequence (P49281 1-568): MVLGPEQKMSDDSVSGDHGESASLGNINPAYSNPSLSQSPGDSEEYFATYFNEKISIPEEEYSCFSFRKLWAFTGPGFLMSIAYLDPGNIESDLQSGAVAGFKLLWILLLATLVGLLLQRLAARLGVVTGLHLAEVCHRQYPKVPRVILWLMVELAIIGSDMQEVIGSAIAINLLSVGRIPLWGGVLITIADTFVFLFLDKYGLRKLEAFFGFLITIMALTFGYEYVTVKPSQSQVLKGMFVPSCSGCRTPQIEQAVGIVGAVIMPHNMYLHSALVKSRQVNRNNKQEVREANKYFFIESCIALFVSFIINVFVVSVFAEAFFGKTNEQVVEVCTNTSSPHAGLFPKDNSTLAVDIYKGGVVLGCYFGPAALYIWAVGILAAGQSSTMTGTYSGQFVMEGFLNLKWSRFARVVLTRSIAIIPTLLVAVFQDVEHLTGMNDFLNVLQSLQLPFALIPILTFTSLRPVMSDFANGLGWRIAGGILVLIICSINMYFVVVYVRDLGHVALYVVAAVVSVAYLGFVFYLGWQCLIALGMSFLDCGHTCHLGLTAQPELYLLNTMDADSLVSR
Assay: radioactive iron uptake assay in HEK293 cells stably overexpressing hDMT1
Type: cell-based
Conditions: for inhibition at 10 µM: HEK293, 10 μM compound, radioactive iron uptake, pH 5.5; for Ligand efficiency: from IC50 of radioactive iron uptake in HEK293-hDMT1; for IC50: radioactive iron 1 μM, 15 min incubation, extracellular pH 5.5, HEK293 stably overexpressing hDMT1

SMILES | inhibition at 10 µM [%] | Ligand efficiency | IC50 [µM]
Cc1cc(=O)[nH]c(-n2nc(C(C)(C)C)cc2C)n1 [Compound 10] | < 20 | – | –
Cc1cc(C)n(-c2nc(C)c(C)c(O)n2)n1 [Compound 19] | – | 0.43 | 12.5 ± 0.3
CCc1c2c(nn1-c1nc(C)cc(=O)[nH]1)CCCC2 [Compound 17] | – | 0.42 | 2.26 ± 0.3
Cc1cc(=O)[nH]c(-n2nc(C)c(C)c2C)n1 [Compound 6] | – | 0.44 | 10 ± 0.4
Cc1cc(C)nc(-n2nc(C)cc2C)n1 [Compound 20] | < 20 | – | –
Cc1cc(=O)[nH]c(-n2nc3c(c2C)CCC3)n1 [Compound 12] | < 20 | – | –
Cc1cc(=O)[nH]c(-n2nc3c(c2C)COCC3)n1 [Compound 14] | < 20 | – | –
Cc1cc(=O)[nH]c(-n2nc3c(c2C)CNCC3)n1 [Compound 15] | < 20 | – | –
Cc1cc(=O)[nH]c(-n2nc3c4c2CCCC4CCC3)n1 (stereo not shown) [Compound 18] | – | 0.42 | 0.94 ± 0.2
CCOC(=O)c1cnc(-n2[nH]c(C)cc2=O)[nH]c1=O [Compound 25] | < 20 | – | –
Cc1cc(C)c(CSC(=N)N)c(C)c1CSC(=N)N [Compound 2, reference compound] | – | 0.25 | –
CCc1cc(CC)n(-c2nc(C)cc(=O)[nH]2)n1 [Compound 16] | – | 0.45 | 3.8 ± 0.2

Continued, values first:

inhibition at 10 µM [%] | Ligand efficiency | IC50 [µM] | SMILES
< 20 | – | – | CCc1cc(=O)[nH]c(-n2[nH]c(C)cc2=O)n1 [Compound 24]
< 20 | – | – | Cc1cc(=O)[nH]c(-n2nc(-c3ccccc3)cc2C)n1 [Compound 11]
< 20 | – | – | CCc1cc(=O)n(-c2nc(C)cc(=O)[nH]2)[nH]1 [Compound 21]
– | 0.40 | 4.2 ± 0.4 | CCc1c(C)nn(-c2nc(C)cc(=O)[nH]2)c1C [Compound 7]
< 20 | – | – | Cc1cc(=O)[nH]c(-n2[nH]c(C)c(Cc3ccccc3)c2=O)n1 [Compound 22]
< 20 | – | – | Cc1cc(=O)[nH]c(-n2nc(C)c(Cc3ccccc3)c2C)n1 [Compound 9]
< 20 | – | – | Cc1cc(=O)[nH]c(-n2nc(C)c(-c3ccccc3)c2C)n1 [Compound 8]
